From patent US20260355239A1, “COMBINATION OF A T CELL THERAPY AND CONTINUOUS OR INTERMITTENT DGK INHIBITOR DOSING” (Juno Therapeutics, Inc., priority 2022, published 2026)

Columns and labels:
[1] = tested on: anti-CD19 CAR-T cells; test: Phenotype of chronically stimulated CAR-T cells concurrently treated; type: cell-based, human; details: concurrent treatment 0.1-1000 nM, chronic stimulation 7 days
From the text: T cell compositions containing T cells expressing an exemplary anti-CD19 CAR were generated from leukapheresis samples from two healthy human adult donors by a process that included immunoaffinity-based selection of T cells by separately selecting CD4+ and CD8+ cells from the samples, resulting in two compositions enriched for CD4+ and CD8+ cells, respectively, per donor. Cells of the enriched CD4+ and CD8+ compositions were separately activated with anti-CD3/anti-CD28 beads and subjected to lentiviral transduction with a vector encoding an anti-CD19 CAR. The anti-CD19 CAR contained an anti-CD19 single-chain variable fragment (scFv) derived from a murine antibody (variable region derived from FMC63), an immunoglobulin-derived spacer, a transmembrane domain derived from CD28, a costimulatory region derived from 4-1BB, and a CD3-zeta intracellular signaling domain. The expression construct in the viral vector further contained sequences encoding a surrogate surface marker for CAR expression, which was separated from the CAR-encoding sequence by a T2A ribosome skip sequence. Transduced CD4+ or CD8+ T cell populations then were separately incubated in the presence of stimulating reagents for cell expansion. Expanded CD4+ and CD8+ cells were formulated and cryopreserved separately and stored. […]

[2] = tested on: anti-CD19 CAR T cells; test: In vivo expansion and/or persistence of CAR T cells from different donors, Raji-rFluc NSG mice (Example 8); details: 0.3 mg/kg oral once daily Days 1-7, four donors, vs CAR T cells alone
Method: The effects of Compound 17 administration on in vivo expansion and/or persistence of CAR T cells produced from different healthy donors were assessed.

[3] = tested on: anti-CD19 CAR-T cells with K562.CD19, Granta-519 and Raji cells; test: Rescue treatment: cytokine production of chronically stimulated CAR-T cells, 2D co-culture; type: cell-based, human; details: 48 h
[4] = tested on: A549.CD19 and Granta-519 tumor spheroids; test: Cytolytic activity of chronically stimulated, concurrently treated CAR-T cells, 3D spheroids; type: cell-based, human; details: concurrent treatment during chronic stimulation, day 9
Method: To simulate conditions of chronic stimulation, approximately 20,000 anti-CD19 CAR-expressing T cells of a combined CAR-T cell composition produced as described in Example 2 from two healthy adult donors were incubated with 30 µg/mL of plate-bound CAR-specific anti-idiotypic antibody (see, e.g., WO2018/023100) at 37 °C for a period of seven days. During this seven-day period, engineered CAR T cells were concurrently treated with Compound 17(0.1-1000 nM) or a vehicle control added at day 0.
To further assess activity of chronically stimulated cell, the chronically stimulated CAR-T cells that had been concurrently treated with DGKi were incubated with A549 CD19+ tumor spheroids or Granta-519 tumor spheroids to rechallenge the CAR-T cells at an effector to target ratio of 1:2 for up to 14 days. The tumor spheroids were engineered to express a red fluorescent dye to permit monitoring of tumor cell lysis by microscopy during the assay.
The antigen-specific cytolytic activity of the chronically stimulated CAR-expressing T cells was assessed by monitoring fluorescence (indicative of tumor cell lysis) over time. The tumor volume (normalized to time zero) was measured as the number of red calibrated units (RCU)×μm^2 area. […] Duplicate values for cell compositions manufactured from the two different healthy donors are shown.

[5] = tested on: Raji-rFluc cells
Method: For assessing in vivo anti-tumor effects, immunodeficient NSG mice were injected intravenously with 0.5×10^6 Raji-rFluc cells. […] This dose of CAR-expressing T cells was not expected to achieve complete tumor rejection.
For assessing tumor burden by bioluminescence imaging, mice received intraperitoneal injections of luciferin substrate resuspended in phosphate-buffered saline. Tumor burden and survival of treated mice were assessed until Day 50. In addition, flow cytometry for assessing circulating CAR T cell number and CD4 and CD8 expression was performed on Days 5, 12, 19, and 26. CAR expression was assessed using an anti-idiotypic (anti-ID) antibody specific for the CAR.

[6] = tested on: CD19-antigen expressing target cells (K562.CD19, Granta-519, Raji); test: CAR-T cell cytolytic function in co-culture; type: cell-based, human; details: 2.5:1 effector:target, compound present during co-culture
From the text: T cell compositions containing T cells expressing an exemplary anti-CD19 CAR were generated from leukapheresis samples from two healthy human adult donors by a process that included immunoaffinity-based selection of T cells by separately selecting CD4+ and CD8+ cells from the samples, resulting in two compositions enriched for CD4+ and CD8+ cells, respectively, per donor. Cells of the enriched CD4+ and CD8+ compositions were separately activated with anti-CD3/anti-CD28 beads and subjected to lentiviral transduction with a vector encoding an anti-CD19 CAR. […]
Prior to use, the cryopreserved CD4+ and CD8+ CAR-engineered cell compositions were thawed and combined at approximately a 1:1 CD4:CD8 ratio for each donor to prepare a combined CD4+ CAR+ and CD8+ CAR+ T cell composition. The effects of treatment with Compound 17 at various concentrations (0.1 nM, 1 nM, 10 nM, 100 nM, or 1000 nM) added at day 0 during stimulation of the combined CAR-T cell composition with a plate-bound CAR-specific anti-idiotypic antibody (see, e.g., WO2018/023100) or during co-culture with CD19-expressing cells was then assessed.
The cytolytic function of T cells treated with Compound 17 was assessed following co-culture of the combined CAR-T cell composition with various CD19-expressing lymphoma cells at a 2.5:1 effector:target ratio in the presence of Compound 17. […]

[7] = tested on: Granta-519 cells; test: Rescue treatment: cytolytic activity of chronically stimulated CAR-T cells, 2D, Granta-519; type: cell-based, human; details: higher concentrations, 2D co-culture
[8] = Compound 17: 0.3 mg/kg oral once daily Days 1-30 with CAR T cells, or KO CAR T cells
[9] = Compound 17: 0.3 mg/kg oral once daily Days 1-30 with CAR T cells, or KO CAR T cells, vs CAR T cells without DGK KO alone

For `CC[C@H]1CN([C@@H](CC)c2ccc(C(F)(F)F)cc2)[C@H](CC)CN1c1nc(=O)n(C)c2ccc(C#N)nc12` [Compound 17, 4-((2S,5R)-2,5-diethyl-4-((S)-1-(4-(trifluoromethyl)phenyl)propyl)piperazin-1-yl)-1-methyl-2-oxo-1,2-dihydropyrido[3,2-d]pyrimidine-6-carbonitrile], the “populations of highly activated CAR-T cells (CD69 and PD-1 high)” value [1] was “increased populations of highly activated CAR-T cells”, the “CAR T cell expansion and/or persistence” value [2] was “CAR T cell expansion and/or persistence was increased in all mice” and the “production of IFNγ, IL-2 and TNFα” value [3] was “dose-dependent increase in production of all three cytokines”. The “cytolytic activity of CAR T cells (normalized tumor volume)” value [4] was “modestly reduced the cytolytic activity of the CAR T cells”, the “CAR T cell expansion and/or persistence” value [5, 8] was “improved CAR T cell expansion and/or persistence” and the tumor burden [5, 8] was “tumor burden was reduced”. The “anti-tumor efficacy (tumor control index)” value [5, 9] was “improved anti-tumor efficacy”, the survival [5, 9] was “improved survival” and the “tumor burden, survival, and CAR T cell expansion and/or persistence vs DGKα/ζ dual KO CAR T cells” value ([5]; continuous DGKi administration with CAR T cells) was “comparable to those achieved with administration of DGKα/ζ dual KO CAR T cells”. For the same compound, the “cytolytic function (specific lysis)” value [6] was “did not affect cytolytic function” and the “cytolytic activity of CAR T cells against Granta-519 cells” value [7] was “improved the cytolytic activity of CAR T cells against K562.CD19 and Granta-519 cells”.
